Measurements: patent US20260125382A1, “COMPOUNDS FOR INHIBITING OR DEGRADING CDK2 AND/OR CDK9 AND MEDICINAL USE THEREOF” (KOREA RESEARCH INSTITUTE OF CHEMICAL TECHNOLOGY, priority 2022, published 2026)

What was measured:
CDK2 = target: T1, CDK2 (Homo sapiens, UniProt P24941); test: CDK protein degradation activity (Western blotting), CDK2; type: cell-based; conditions: MDA-MB-231 cells, 16 hours, Western blot
T1 construct: endogenous in cells; host or cells: MDA-MB-231
Method in brief: (§1)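 Seed MDA-MB-231 cells; next day add compound to 100 nM, 1 μM or 10 μM final, or DMSO. After 16 h, harvest and lyse in Triton X-100 buffer, run SDS-PAGE, probe for CDK2, CDK9 and tubulin.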

CDK9 = target: T2, CDK9 (Homo sapiens, UniProt P50750); test: CDK protein degradation activity (Western blotting), CDK9; type: cell-based; conditions: MDA-MB-231 cells, 16 hours, Western blot
T2 construct: endogenous in cells; host or cells: MDA-MB-231
Method in brief: as §1

T2 sequence (P50750 whole entry): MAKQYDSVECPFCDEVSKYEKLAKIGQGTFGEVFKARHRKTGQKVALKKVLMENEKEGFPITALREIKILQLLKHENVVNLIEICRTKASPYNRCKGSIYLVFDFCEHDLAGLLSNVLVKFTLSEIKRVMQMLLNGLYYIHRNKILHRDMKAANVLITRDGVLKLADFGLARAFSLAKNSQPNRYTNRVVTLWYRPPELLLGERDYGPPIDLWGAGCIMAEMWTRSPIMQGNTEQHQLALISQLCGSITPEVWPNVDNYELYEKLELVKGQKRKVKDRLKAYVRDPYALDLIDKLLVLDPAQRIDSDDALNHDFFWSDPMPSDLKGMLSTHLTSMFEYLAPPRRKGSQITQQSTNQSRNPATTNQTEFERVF

SMILES	Enzyme degradation CDK2 (% remaining) @ 0.1 μM (CDK2)	Enzyme degradation CDK2 (% remaining) @ 1 μM (CDK2)	Enzyme degradation CDK2 (% remaining) @ 10 μM (CDK2)	Enzyme degradation CDK9 (% remaining) @ 0.1 μM (CDK9)	Enzyme degradation CDK9 (% remaining) @ 1 μM (CDK9)	Enzyme degradation CDK9 (% remaining) @ 10 μM (CDK9)
N#Cc1cccc(C(=O)N[C@H]2C[C@@H](n3cnc4c(Nc5ccc(N6CCN(CC7CCN(C(=O)C8CCN(c9ccc%10c(c9)C(=O)N(C9CCC(=O)NC9=O)C%10=O)CC8)CC7)CC6)cc5)ncnc43)C2)n1 (stereo partly drawn) [Compound 455, 6-cyano-N-((1s,3s)-3-(6-((4-(4-((1-(1-(2-(2,6-dioxopiperidin-3-yl)-1,3-dioxoisoindolin-5-yl)piperidin-4-carbonyl)piperidin-4-yl)methyl)piperazin-1-yl)phenyl)amino)-9H-purin-9-yl)cyclobutyl)picolinamide]	30%	20%	20%	0/0/0%	0/0/0%	0/0/0%
Cc1cccc(C(=O)N[C@H]2C[C@@H](n3cnc4c(NC5CCN(CCOC6CCN(C(=O)CNc7ccc8c(c7)C(=O)N(C7CCC(=O)NC7=O)C8=O)CC6)CC5)ncnc43)C2)n1 (stereo partly drawn) [Compound 45, N-((1s,3s)-3-(6-((1-(2-((1-((2-(2,6-dioxopiperidin-3-yl)-1,3-dioxoisoindolin-5-yl)glycyl)piperidin-4-yl)oxy)ethyl)piperidin-4-yl)amino)-9H-purin-9-yl)cyclobutyl)-6-methylpicolinamide]	80%	60%	90%	0/0/0%	0/0/0%	0/0/0%
Cc1cccc(C(=O)N[C@H]2C[C@@H](n3cnc4c(NCc5ccc(OCCCN6CCN(C(=O)CNc7cccc8c7C(=O)N([C@H]7CCC(=O)NC7=O)C8=O)CC6)cc5)ncnc43)C2)n1 [Compound 115, N-((1s,3s)-3-(6-((4-(3-(4-((2-(2,6-dioxopiperidin-3-yl)-1,3-dioxoisoindolin-4-yl)glycyl)piperazin-1-yl)propoxy)benzyl)amino)-9H-purin-9-yl)cyclobutyl)-6-methylpicolinamide]	30%	40%	50%	0/0/0%	0/0/0%	0/0/0%
O=C1CC[C@H](N2C(=O)c3cccc(OCC(=O)N4CCC(OCCN5CCN(c6ccc(Nc7ncnc8c7ncn8C7CC(NC(=O)Cc8ccccc8)C7)cc6)CC5)CC4)c3C2=O)C(=O)N1 (stereo partly drawn) [Compound 246, N-((1s,3s)-3-(6-((4-(4-(2-((1-(2-((2-(2,6-dioxopiperidin-3-yl)-1,3-dioxoisoindolin-4-yl)oxy)acetyl)piperidin-4-yl)oxy)ethyl)piperazin-1-yl)phenyl)amino)-9H-purin-9-yl)cyclobutyl)-2-phenylacetamide]	60%	40%	40%	80%	30%	0%
O=C1CC[C@H](N2C(=O)c3ccc(N4CCC(CN5CCN(c6ccc(Nc7ncnc8c7ncn8C7CC(NC(=O)c8c(Cl)cccc8Cl)C7)cc6)CC5)CC4)cc3C2=O)C(=O)N1 (stereo partly drawn) [Compound 166, 2,6-dichloro-N-((1s,3s)-3-(6-((4-(4-((1-(2-(2,6-dioxopiperidin-3-yl)-1,3-dioxoisoindolin-5-yl)piperidin-4-yl)methyl)piperazin-1-yl)phenyl)amino)-9H-purin-9-yl)cyclobutyl)benzamide]	10%	20%	20%	0/0/0%	0/0/0%	0/0/0%
